Laboratory results reported in US20220248614A1, “METHOD FOR ELIMINATING PATHOGENS IN PLANT GROWING AND CORRESPONDING SYSTEM” (priority 2019, published 2022).
“Also recorded” adds a separate entry of the source.

What was measured:
[1] = tested on: Pythium ultimum; assay: Pythium ultimum test 1: fungal culture soaked with ozone water; assay type: cell-based
Procedure: In a first dish, a fungal culture was soaked for 30 minutes with sterile water when the Pythium fungus had grown to a distance of approx. 2 cm away from the small piece of inoculating agar at the rim of the dish, which was removed with a large cork borer before the water treatment. The fungus grew to fill the dish within 16 hours during the water treatment. In a second dish, an identical treatment with ozone water (800 ppb) was carried out. A thicker fungal mycelium was visible in the Pythium culture around the site of inoculation, from which the fungus only had time to grow 2 cm before the ozone treatment. The ozone destroyed the youngest tips of the hyphae of the fungus and the hyphae that had grown apart from the agar, but had no effect on hyphae that had already grown partially into the agar.

[2] = tested on: Fusarium oxysporum; assay: Fusarium oxysporum test 1: fungal suspension in ozone water, plated on PDA; assay type: cell-based; settings: for culture colonies in the plate: 10 minutes
Procedure: A plateful of F. oxyxsporum fungus without agar was homogenized with 100 ml of water. 10 ml and 1 ml of the fungal suspension were added to 100 ml of sterile water and 100 ml of 800 ppb ozone water. After 10 minutes, the inoculums from each treatment were placed in 3 PDA plates.

[3] = tested on: Grey mould (Botrytis cinerea); assay: Grey mould test 1: spores rinsed from cabbage in ozone water, plated on PDA; assay type: cell-based; settings: taken from wet cabbage / grown at very high humidity
Procedure: Grey mould spores rinsed from cabbage were homogenized in approximately 200 ml of water. 10 ml and 1 ml of this fungal suspension were added to 100 ml of water and 100 ml of ozone water (800 ppb). After 10 and 60 minutes, specimens from each treatment were placed into 3 PDA plates.

[4] = tested on: cucumber powdery mildew; assay: Actual test, control of cucumber powdery mildew (April-May 2019); assay type: in vivo, Erysiphe sp.
Procedure: (§1) While the preliminary test was still underway, 20 cucumber seedlings were grown to the stage of a single leaf, the seedlings then being divided up into 5 boxes. The test groups were • 1. entirely untreated • 2. water spraying three times a week and watering of pot with ozone water for 3 and for 2 weeks before the conclusion of the test • 3. ozone spraying 3 three times a week • 4. ozone spraying 5 times a week at 7 a.m. and 4 p.m. • 5. ozone spraying 5 times a week at 7 a.m., 12 p.m. and 4 p.m.
The test area, in which mesh-bottomed pots were planted in peat with 4 pots in each box, was surrounded with the sick seedlings of the preliminary test, which were at a distance of approx. 60 cm from the test plants.

[5] = tested on: grey mould; assay: Grey mould test series on surfaces (wet versus dried fungus); assay type: cell-based, Botrytis cinerea; settings: ozone 2500 ppb in the air; grey mould washed from rotting cabbage, sprayed on cabbage, plastic, glass, redcurrant branch
Source text: Grey mould turns out to be surprising against ozone. […] When test set-ups yielded the same result the following year, in which grey mould spores and the associated mycelium fragments washed from the surface of moist, rotting cabbage survived on a plastic surface in an ozone spray and in a concentrated ozone solution, it was completely clear that the surfaces of the mycelium and spores of grey mould are completely resistant to ozone. […] In nature, grey mould survives until the following year on the surfaces of rotten plants such as berries and succulent leaves, where they form conidia in conidiophores in moist conditions. In wet conditions, the spores hardly spread with the wind; however, once dried by the sun, the spores of the growth break free to be carried a distance of at least 50 metres by the wind if the wind speed exceeds 2 m/s. Dried mycelium and conidiophores are readily identifiable under a microscope by their structure compared with completely turgid growths.

[6] = tested on: cucumber; assay: Tolerance of cucumber plants (leaves, roots) to ozone water; assay type: in vivo
Procedure: Mildewed cucumber leaves were collected from a garden adjacent to the research unit with which 6 outdoor cucumber seedlings were infected. After the verification of the manifestation of an infection, 18 new seedlings were grown up to the stage of the first plant leaf, at which point the plants were divided in onion boxes into 3 groups in the middle of each of which 2 ill plants were placed. The control plants were sprayed three times a week with water. The second test group was sprayed three times a day with ozone water (800 ppb) and the third test group was sprayed mornings and evenings. The sprayings were carried out with large droplets, which remained on the surface of the plant 2-4 hours. At night, the plants were covered with a monochrome plastic in order to maintain a high humidity. The sprayings took place over 6 weeks.
as §1

[7] = tested on: Grey mould (Botrytis cinerea); assay: Grey mould test 2: almost dry old fungal growth rinsed into ozone water; assay type: cell-based
Procedure: A petri dish, (a CMA plate, in which cabbage discs stimulate the formation of conidia), comprising the almost dry old fungal growth and the endophytic bacteria from the cabbage therein), grey mould spores were rinsed into 100 ml of water. 1 and 10 ml of this water were pipetted into 100 ml of water and 100 ml of ozone water. 0.5 ml of each of these water mixtures was pipetted into 3 petri dishes in order to determine the vitality of the grey mould.

[8] = tested on: crops; settings: 80-100 ppb in the air; cited from earlier work
[9] = tested on: powdery mildew; assay: Control of powdery mildew infection by gaseous ozone or ozone solution; assay type: in vivo; settings: ozone in gaseous form, constant exposure
Procedure: The spores of powdery mildew have an exceptionally high moisture content compared to the spores of other fungal diseases, which is why merely a very high air humidity suffices for a spore infection, yet the conidium is destroyed quickly when engulfed by a water droplet. The spores of the fungus spread during the day and make the plant ill at night. Depending on the species of the powdery mildew, the infection stage takes 6-12 hours. […] Using this knowledge, it is possible to construct technical applications for implementation in greenhouses as well as outdoors for the control of powdery mildew disease infections. Based on this solution, many other plant pests which spread first to the surfaces of the plants as dry spores that have acclimated to the shining of the sun during their evolution (for example grey mould) can also be controlled.

## O=[O+][O-] [ozone]
[1]
  sensitivity of Pythium fungus (mycelium, zoospores): sensitive
[2]; 1 ml of inoculum in 100 ml of 800 ppb ozone water
  culture colonies in the plate: 1-3 colonies
[2]; 10 ml of inoculum in 100 ml of 800 ppb ozone water
  culture colonies in the plate: 8-17 colonies
[2]; in a solution and in sprays on surfaces of dry materials
  sensitivity of spores (conidia) and mycelium of Fusarium fungus: completely sensitive
[3]
  sensitivity of grey mould mycelium and spores grown wet: ozone-resistant; also recorded: completely tolerant
[4]; in vivo
  sensitivity of spores (conidia) of powdery mildew: extremely sensitive
[4]; ozone concentration of the spraying 340 ppb
  survival of powdery mildew mycelium growing on the surface of the plant: survives
[5]
  killing of spores and mycelium of grey mould: not able to kill off
[6]; actual test
  state of roots compared with the untreated test group: undamaged
[6]; actual test, ozone sprayings, any stage
  damage to the leaves of the plants: did not damage the leaves
[6]; actual test, watering of the roots with ozone water
  impact on development of fresh weight: did not have an impact
[6]; approximately 800 ppb in the water, stem bottoms watered twice a week, evaluated a week after last treatment, preliminary tests
  damage to the root system of cucumber or weakening of the plant: did not cause any damage
[7]
  sensitivity of dried grey mould mycelium and spores: sensitive
[8]
  effect of constant exposure on leaves: causes chlorosis in leaves
[9]
  effect on powdery mildew infection: satisfactory effect
